Test results from patent US6441193B1, “Estrogen agonists/antagonists” (Pfizer Inc., priority 1995, dated 2002).

Key:
[1] = system: prostate; experiment: Effect on prostate weight (wet prostate weight after 14 days of daily subcutaneous injection); type: in vivo, rat; conditions: male Sprague-Dawley rats, s.c. daily for 14 days
Experimental: Male Sprague-Dawley rats, three months of age are administered by subcutaneous injection either vehicle (10% ethanol in water), estradiol (30 μg/kg), testosterone (1 mg/kg) or a compound of formula I daily for 14 days (n=6/group). After 14 days the animals are sacrificed, the prostate is removed and the wet prostate weight is determined. Mean weight is determined and statistical significance (p<0.05) is determined compared to the vehicle-treated group using Student's t-test.

[2] = system: ventral prostate; conditions: male rats; cited from earlier work

For `C[C@]12CC[C@@H]3c4ccc(O)cc4CC[C@H]3[C@@H]1CC[C@@H]2O` [estrogen, estradiol], the “wet prostate weight compared to vehicle” value ([1]; 30 μg/kg) was “significantly reduces prostate weight”.
In the case of `O=C(c1ccc(OCCN2CCCCC2)cc1)c1c(-c2ccc(O)cc2)sc2cc(O)ccc12` [raloxifene, 6-hydroxy-2-(4-hydroxyphenyl)-3-[4-(2-piperidinoethoxy)benzoyl] benzo[b] thiophene], the “effect on ventral prostate” value [2] is given as “regression of the ventral prostate”.
In the case of `C[C@]12CC[C@H]3[C@@H](CCC4=CC(=O)CC[C@@]43C)[C@@H]1CC[C@@H]2O` [Testosterone, testosterone], the “wet prostate weight compared to vehicle” value ([1]; testosterone 1 mg/kg) is reported as “no effect”.
